Tested on: Vibrio spp. isolated from shrimp pond water
Assay: Disk diffusion on Vibrio isolation agar (zone of inhibition)
Type: cell-based
Conditions: 10 μl on disk, extract of 20 g powder in 100 ml water, chloramphenicol 25 μg/ml, 37° C.
Experimental: In another experiment, the effect of the nut gall extract on the growth of Vibrio spp. isolated from shrimp pond water was tested. The extract was prepared by adding 20 g of nut gall powder into 100 ml of water, soaking for one hour followed by centrifugation. Chloramphenicol (25 μg/ml) was taken as positive control. Vibrio isolation agar was prepared and the agar plates were cooled to room temperature. Sterile disk was placed in the centre of agar plate, after inoculating Vibrio spp. using a sterile cotton swab. 10 μl of extract/antibiotic was added to the disk and incubated at 37° C. in an incubator.

O=C(N[C@H](CO)[C@H](O)c1ccc([N+](=O)[O-])cc1)C(Cl)Cl [Chloramphenicol]
zone of inhibition at 25 µg/mL: 13 mm
